The subject of experiment [1] is coronary arteries. The experiment in a line: animal or person. To be noted: Macaca mulatta, read-out: EC50 (-log mol/liter) (converted).
Experiment [2] relates to coronary arteries. The experiment in a line: Mechanical injury coronary vasospasm protocol (Protocol 2). The class given is in vivo, rhesus monkeys (Macaca mulatta). To be noted: serotonin 67 μmol/liter IC; U46619 67 nmol/liter or 1 nmol/liter; ET1 ≦10 nmol/liter; AII ≦10 μmol/liter. The text has this: A separate mechanical injury, Protocol 2, was used in three additional monkeys (one male, two ovx). The injury step of Protocol 2, was deliberate mechanical stretching of the LAD or left main coronary artery with a 5F catheter.
In Protocol 2, steps 1-5 were the same as in Protocol 1. The remaining steps were as follows:
7. IC injection of angiotensin II (sequential doses to 10 μmol/liter);
8. Injury by stretching the coronary artery with a 5F catheter;
9. IC injection of serotonin (sequential doses to 1 mmol/liter);
(§1) 10. IC injection 15 minutes later with 1 or 10 μmol/liter nitrendipine or Ro 40-5967 (mibefradil);
11. IC injection of […] (sequential doses to 10 μmol/liter); and
(§2) 12. IC injection 15 minutes later with 1 or 10 μmol/liter nitrendipine or Ro 40-5967.
Putative coronary vasospasm stimuli were judged primarily by actions on large coronary artery diameters, analyzed as diameter of the most proximal focus of vasospasm at end-diastole from video-taped images recorded at 30 frames/s. We used the image analysis program Image Pro to measure the diameters from single frames acquired with an Imagraph frame grabber in a Pentium computer. We used the 3F catheter tip radio-opaque marker ring (1.0 mm) for calibration and determined minimal and maximal diameters just distal to the constriction. All responses to interventions were also X-ray imaged immediately (15 to 30 s after injection) and at exactly 3 minutes (and 15 minutes if there was vasospasm) after injection.

The subject of experiment [3] is coronary arteries.
In experiment [4] the test system is coronary arteries. The experiment in a line: Relief of coronary vasospasm by intracoronary Ca2+ antagonist. The class given is in vivo, rhesus monkeys (Macaca mulatta). The method, then: The eighth to tenth steps, which were 1 ml injections of 100 μmol/liter serotonin and 1 μmol/liter U46619 combined, were the critical steps. These concentrations of serotonin and U46619, injected in three repeated challenges, provoked drug-induced vasospasm. Sensitivity was determined by whether the vasospasm response occurred to the first, second or third stimulus, allowing at least a 7-minute delay from one injection to the next. For three of these seven ovx monkeys, 1-2 nM endothelin-1 (alone and plus serotonin) and 1 μmol/liter angiotensin-II (alone and plus serotonin) steps were administered between steps 10 and 11 (as additional challenges), but these extra steps never produced vasospasm. […] Step 12 was a Ca^2+ antagonist, either nitrendipine or mibefradil, as a vasodilator to relieve the vasospasm or cardiogenic shock that was the end point.
as §1, §2
To allow monkeys to recover and prevent death due to cardiogenic shock, we followed combined serotonin and U46619 stimulation with an IC Ca^2+ antagonist, either nitrendipine or mibefradil, at the end of the 15 minute vasospasm, except for that in FIG. 2. […] In monkeys with severe vasoconstriction and low heart rates (<90 beats/minute), Ca^2+ antagonists effected increases to 90 to 200 beats/minute due to reversal of atrioventricular […] conduction blocks (evident in the recovery of heart rate shown in Table 2).

Entries after “also recorded” stand apart in the source; their conditions may differ.

Take `NCCc1c[nH]c2ccc(O)cc12` [Serotonin, serotonin]: in the experiment on coronary arteries [1], the EC50 is 0.000158 mol/L. Besides, in the experiment on coronary arteries [2], the “coronary vasospasm with mechanical injury (5F catheter stretch)” value is given as “caused coronary vasospasm at multiple sites; also recorded: Vasospasm was stimulated”. In the experiment on coronary arteries [3] (Protocol 1, number of animals with vasospasm / number of animals), the Spasms/N is on record as 0/8. Also, the “ED50 (-log mol/liter)” value in the experiment on coronary arteries [3] (Protocol 1, syringe concentration of the named vasoconstrictor causing 50% reduction of diameter from control, combined stimuli with 100 μmol/liter serotonin) is recorded as 2.5 -log mol/liter. In addition, the “vasoactivity / constriction of arteries on IC injection of single agent” value with coronary arteries [3] (serotonin 67 nmol/liter to 667 μmol/liter, U46619 6.7 to 2,000 nmol/liter) was “vasoactive in all animals”. In addition, the “coronary vasospasm on IC injection (no mechanical injury)” value with coronary arteries [3] (serotonin 6.7 or 200 μmol/liter alone, U46619 6.7 to 2,000 nmol/liter alone, AII up to 200 nmol/liter, combination 6.7 μmol/liter serotonin and 67 nmol/liter U46619, triple combination with ET1) is “vasospasm could not be found”.
Consider `COCC(=O)O[C@]1(CCN(C)CCCc2nc3ccccc3[nH]2)CCc2cc(F)ccc2[C@@H]1C(C)C` [mibefradil], for which, in the experiment on coronary arteries [4] (IC injection, nitrendipine 1 to 10 μmol/liter, mibefradil 0.1 to 10 μmol/liter, not allowing for dilution), the “relief of coronary vasospasm” value is recorded as “immediately effective in relieving vasospasm”. Further, the “blood pressures returned to normal ranges (minimums, systolic/diastolic)” value with coronary arteries [4] (Mibefradil IC 0.1 to 10 μmol/liter, from diastolic levels as low as 10 to 20 mm Hg) is given as 100/60. In addition, the “blood pressure after IC mibefradil” value with coronary arteries [4] (one MPA monkey of Example 2, nadir 38/20 mm Hg, after 15 minutes vasospasm) is given as 124/84.

The record behind these values is US6602487B1, “Methods and tests for producing and for inhibiting coronary artery vasospasms” (Dimera Incorporated, priority 1997, dated 2003).
